Laboratory results as given in patent publication US12060347B2 (BRISTOL-MYERS SQUIBB COMPANY, priority 2016, dated 2024).

Target: T1, human PAR4 (Homo sapiens, UniProt Q96RI0)
T1 construct: expressed in transfected cells; host or cells: HEK293 PAR4 Clone 1.2A (BMS Arctic ID 383940)
T1 sequence (Q96RI0 18-385): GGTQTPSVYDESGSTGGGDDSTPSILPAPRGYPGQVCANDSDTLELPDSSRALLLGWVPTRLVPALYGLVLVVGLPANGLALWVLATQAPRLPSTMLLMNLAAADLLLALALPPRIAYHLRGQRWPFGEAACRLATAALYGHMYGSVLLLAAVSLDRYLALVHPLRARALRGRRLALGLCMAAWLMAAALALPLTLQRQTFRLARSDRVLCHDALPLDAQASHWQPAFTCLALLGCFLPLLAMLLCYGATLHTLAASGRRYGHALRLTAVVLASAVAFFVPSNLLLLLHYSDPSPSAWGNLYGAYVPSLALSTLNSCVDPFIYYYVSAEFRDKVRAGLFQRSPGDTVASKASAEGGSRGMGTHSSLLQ
Assay: PAR4 FLIPR assay: antagonism of agonist-peptide-induced calcium mobilization in PAR4-expressing HEK293 cells
Format: cell-based
Conditions: H-Ala-Phe(4-F)-[…]NH2-induced intracellular calcium mobilization, 11-point curves

SMILES	IC50
COc1cnc2c(-c3nc4cc(F)c(OC[C@@H](C)OC(=O)Nc5ccc(CO)nc5)cc4s3)cc(C)cc2n1 [Example 546, (R)-1-((5-fluoro-2-(2-methoxy-7-methylquinoxalin-5-yl)benzo[d]thiazol-6-yl)oxy)propan-2-yl (6-(hydroxymethyl)pyridin-3-yl)carbamate]	14 nM
COc1cnc2c(-c3nc4cc(F)c(OCCOC(=O)Nc5ccc(C#N)nc5)nc4s3)cc(C)cc2n1 [Example 198, 2-((6-fluoro-2-(2-methoxy-7-methylquinoxalin-5-yl)thiazolo[5,4-b]pyridin-5-yl)oxy)ethyl (6-cyanopyridin-3-yl)carbamate]	0.6 nM
COc1cnc2c(-c3nc4cc(F)c(OC[C@@H](C)OC(=O)Nc5cnc(C)c(CO)c5)cc4s3)cc(C)cc2n1 [Example 544, (R)-1-((5-fluoro-2-(2-methoxy-7-methylquinoxalin-5-yl)benzo[d]thiazol-6-yl)oxy)propan-2-yl (5-(hydroxymethyl)-6-methylpyridin-3-yl)carbamate]	34 nM
COc1cnc2c(-c3nc4cc(F)c(O[C@@H](C)[C@@H](C)OC(=O)Nc5ccnc(OCCC(C)(C)O)c5)nc4s3)cc(C)cc2n1 [Example 727, (2R,3S)-3-((6-fluoro-2-(2-methoxy-7-methylquinoxalin-5-yl)thiazolo[5,4-b]pyridin-5-yl)oxy)butan-2-yl (2-(3-hydroxy-3-methylbutoxy)pyridin-4-yl)carbamate]	1.7 nM
COc1cnc2c(-c3nc4cc(F)c(OC[C@@H](C)OC(=O)Nc5ccc(C(=O)NCC(C)(C)CO)nc5)cc4s3)cc(C)cc2n1 [Example 472, (R)-1-((5-fluoro-2-(2-methoxy-7-methylquinoxalin-5-yl)benzo[d]thiazol-6-yl)oxy)propan-2-yl (6-((3-hydroxy-2,2-dimethylpropyl)carbamoyl)pyridin-3-yl)carbamate]	4.6 nM
COCc1cnc2c(-c3nc4c(C)c(F)c(OC)cc4s3)cc(C)cc2n1 [Example 295, 5-fluoro-6-methoxy-2-(2-(methoxymethyl)-7-methylquinoxalin-5-yl)-4-methylbenzo[d]thiazole]	0.7 nM
COc1cnc2c(-c3nc4cc(F)c(O[C@@H](C)[C@@H](C)OC(=O)Nc5cnc(OC[C@H](C)O)nc5)nc4s3)cc(C)cc2n1 [Example 728, (2R,3S)-3-((6-fluoro-2-(2-methoxy-7-methylquinoxalin-5-yl)thiazolo[5,4-b]pyridin-5-yl)oxy)butan-2-yl (2-((S)-2-hydroxypropoxy)pyrimidin-5-yl)carbamate]	2.4 nM
COc1cnc2c(-c3nc4cc(F)c(O[C@@H](C)[C@@H](C)OC(=O)Nc5ccc(C(=O)NCCC(C)(C)O)nc5)cc4s3)cc(C)cc2n1 [Example 446, (2R,3S)-3-((5-fluoro-2-(2-methoxy-7-methylquinoxalin-5-yl)benzo[d]thiazol-6-yl)oxy)butan-2-yl (6-((3-hydroxy-3-methylbutyl)carbamoyl)pyridin-3-yl)carbamate]	2.3 nM
COc1cnc2c(-c3nc4c(C(O)C(C)(C)C)cc(OC)nc4s3)cc(C)cc2n1 (stereo not drawn) [Example 807, 1-(5-methoxy-2-(2-methoxy-7-methylquinoxalin-5-yl)thiazolo[5,4-b]pyridin-7-yl)-2,2-dimethylpropan-1-ol]	2.6 nM
COc1cnc2c(-c3nc4c(C)cc(OCCOC(=O)Nc5cccnc5)nc4s3)cc(C)cc2n1 [Example 196, 2-((2-(2-methoxy-7-methylquinoxalin-5-yl)-7-methylthiazolo[5,4-b]pyridin-5-yl)oxy)ethyl pyridin-3-ylcarbamate]	2.3 nM
COCc1cnc2c(-c3nc4c(Cl)c(F)c(OCCOC(=O)Nc5ccc(F)nc5)cc4s3)cc(C)cc2n1 [Example 305, 2-((4-chloro-5-fluoro-2-(2-(methoxymethyl)-7-methylquinoxalin-5-yl)benzo[d]thiazol-6-yl)oxy)ethyl (6-fluoropyridin-3-yl)carbamate]	1 nM
COc1cnc2c(-c3nc4cc(F)c(O[C@@H](C)[C@@H](C)OC(=O)Nc5ccc(C(=O)N6CCC[C@H](O)C6)nc5)cc4s3)cc(C)cc2n1 [Example 481, (2R,3S)-3-((5-fluoro-2-(2-methoxy-7-methylquinoxalin-5-yl)benzo[d]thiazol-6-yl)oxy)butan-2-yl (6-((S)-3-hydroxypiperidine-1-carbonyl)pyridin-3-yl)carbamate]	0.6 nM
COc1cnc2c(-c3nc4cc(F)c(OC[C@@H](C)OC(=O)Nc5ccc(C(=O)N6CC[C@@H](CO)C6)nc5)cc4s3)cc(C)cc2n1 [Example 476, (R)-1-((5-fluoro-2-(2-methoxy-7-methylquinoxalin-5-yl)benzo[d]thiazol-6-yl)oxy)propan-2-yl (6-((R)-3-(hydroxymethyl)pyrrolidine-1-carbonyl)pyridin-3-yl)carbamate]	10 nM
COCc1cnc2c(-c3nc4ccc(C(=O)OC)cc4s3)cc(C)cc2n1 [Example 264]	8.3 nM
COc1cnc2c(-c3nc4cc(F)c(OC[C@@H](C)OC(=O)Nc5ccc(C(=O)N6CCC[C@H](O)C6)nc5)cc4s3)cc(C)cc2n1 [Example 484, (R)-1-((5-fluoro-2-(2-methoxy-7-methylquinoxalin-5-yl)benzo[d]thiazol-6-yl)oxy)propan-2-yl (6-((S)-3-hydroxypiperidine-1-carbonyl)pyridin-3-yl)carbamate]	1 nM

Results, then the molecule that gave them:

IC50	SMILES
110 nM	COc1cnc2c(-c3nc4c(Cl)c(F)c(OC[C@@H](C)OC(=O)Nc5ccc(C(F)(F)F)nc5)cc4s3)cc(C)cc2n1 [Example 374, (R)-1-((4-chloro-5-fluoro-2-(2-methoxy-7-methylquinoxalin-5-yl)benzo[d]thiazol-6-yl)oxy)propan-2-yl (6-(trifluoromethyl)pyridin-3-yl)carbamate]
2 nM	COCc1cc(OC)cc2sc(-c3cc(C)cc4nc(OC)cnc34)nc12 [Example 808, 6-methoxy-2-(2-methoxy-7-methylquinoxalin-5-yl)-4-(methoxymethyl)benzo[d]thiazole]
0.7 nM	COCc1cnc2c(-c3nc4c(C)cc(OCCNS(=O)(=O)c5ccc(F)cc5)cc4s3)cc(C#N)cc2n1 [Example 232, N-(2-((2-(7-cyano-2-(methoxymethyl)quinoxalin-5-yl)-4-methylbenzo[d]thiazol-6-yl)oxy)ethyl)-4-fluorobenzenesulfonamide]
5.4 nM	C=C(C)c1cc(-c2nc3c(C)cc(OCCNS(=O)(=O)c4ccc(F)cc4)cc3s2)c2ncc(OC)nc2c1 [Example 241, 4-fluoro-N-(2-((2-(2-methoxy-7-(prop-1-en-2-yl)quinoxalin-5-yl)-4-methylbenzo[d]thiazol-6-yl)oxy)ethyl)benzenesulfonamide]
3.3 nM	Cc1cc(-c2nc3cccc(NC(=O)OC4CCOCC4)c3s2)c2ncc(OC(F)F)nc2c1 [Example 21, tetrahydro-2H-pyran-4-yl (2-(2-(difluoromethoxy)-7-methylquinoxalin-5-yl)benzo[d]thiazol-7-yl)carbamate]
140 nM	CCOCc1cnc2c(-c3nc4c(C)cc(OC)cc4s3)cc(C)cc2n1 [Example 189, 2-(2-(ethoxymethyl)-7-methylquinoxalin-5-yl)-6-methoxy-4-methylbenzo[d]thiazole]
3.8 nM	COc1cc(C(O)C2(CO)CCC2)c2nc(-c3cc(C)cc4nc(OC)cnc34)sc2c1 (stereo not drawn) [Example 646, (1-(hydroxymethyl)cyclobutyl)(6-methoxy-2-(2-methoxy-7-methylquinoxalin-5-yl)benzo[d]thiazol-4-yl)methanol]
33 nM	COc1cnc2c(-c3nc4c(s3)C(O)CCC4)cc(C)cc2n1 (stereo not drawn) [Example 138, 2-(2-methoxy-7-methylquinoxalin-5-yl)-4,5,6,7-tetrahydrobenzo[d]thiazol-7-ol]
36 nM	Cc1cc(-c2cc3ccccc3s2)c2ncc(OC(F)F)nc2c1 [Example 40, 5-(benzo[b]thiophen-2-yl)-2-(difluoromethoxy)-7-methylquinoxaline]
1 nM	COc1cnc2c(-c3nc4c(C)cc(OCCNS(=O)(=O)c5ccc(F)cc5)cc4s3)cc(C#N)cc2n1 [Example 231, N-(2-((2-(7-cyano-2-methoxyquinoxalin-5-yl)-4-methylbenzo[d]thiazol-6-yl)oxy)ethyl)-4-fluorobenzenesulfonamide]
1.9 nM	COc1cc(C(O)C2(C)CC2)c2nc(-c3cc(C)cc4nc(OC)cnc34)sc2c1 (stereo not drawn) [Example 671, (6-methoxy-2-(2-methoxy-7-methylquinoxalin-5-yl)benzo[d]thiazol-4-yl)(1-methylcyclopropyl)methanol]
130 nM	COc1ccc2oc(-c3cc(C)cc4nc(OC(F)F)cnc34)cc2c1OC [Example 6, 2-(difluoromethoxy)-5-(4,5-dimethoxybenzofuran-2-yl)-7-methylquinoxaline]
1.3 nM	COc1ccc(NC(=O)OCCOc2ccc3nc(-c4cc(C)cc5nc(OC)cnc45)sc3c2)cn1 [Example 115, 2-(2-(2-methoxy-7-methylquinoxalin-5-yl)benzo[d]thiazol-6-yloxy)ethyl 6-methoxypyridin-3-ylcarbamate]
1.3 nM	COc1cnc2c(-c3nc4cc(F)c(OC[C@@H](C)OC(=O)Nc5ccc(CCO)nc5)cc4s3)cc(C)cc2n1 [Example 543, (R)-1-((5-fluoro-2-(2-methoxy-7-methylquinoxalin-5-yl)benzo[d]thiazol-6-yl)oxy)propan-2-yl (6-(2-hydroxyethyl)pyridin-3-yl)carbamate]
0.4 nM	COc1cnc2c(-c3nc4cc(F)c(O[C@@H](C)[C@@H](C)OC(=O)Nc5ccnc(C(=O)NC[C@H](C)O)c5)cc4s3)cc(C)cc2n1 [Example 461, (2R,3S)-3-((5-fluoro-2-(2-methoxy-7-methylquinoxalin-5-yl)benzo[d]thiazol-6-yl)oxy)butan-2-yl (2-(((S)-2-hydroxypropyl)carbamoyl)pyridin-4-yl)carbamate]
